Entries after “also recorded” stand apart in the source; their conditions may differ.
Assays:
[1] = test system: contact coagulation pathway; experiment: activated partial thromboplastin time (aPTT) assay in plasma; type: biochemical, human; conditions: plasma containing inhibitor, FIG. 6, anti-FXI antibody at 7.5 μg/mL
From the text: (§1) FIG. 6 was obtained by performing matched aPTT, PT, and TT assays from plasma containing various inhibitors. These assays are well known to those skilled in the art and are not described in great detail here. […] Corn trypsin inhibitor (CTI) was included as a control since it is the factor XIIa inhibitor currently available in a blood collection tube.
(§2) Citrated human WB is transferred from a blood collection bag into coated (siliconized) glass or plastic blood collection tubes, or uncoated glass, polypropylene (PP), polystyrene (PS), or polyethylene terephthalate (PET) conical bottom tubes, either alone or in the presence of inhibitors targeting kallikrein (e.g. aprotinin) or FXIa (e.g. anti-human Factor XI antibody). After 15 minutes incubation, the TEG R value is obtained immediately after addition of 10 mM CaCl2. Matched plasma specimens are analyzed by the CAT in the presence and absence of 1 picomolar Tissue Factor (TF) and by activated partial thromboplastin time (APTT; Stago Compact). Data are analyzed by ANOVA with Tukey's post-test and by linear regression.

[2] = test system: TF coagulation pathway; experiment: PT assay in plasma (high dose tissue factor); type: biochemical, human; conditions: for thrombin generation in tests that monitor the TF coagulation pathway exclusively: identical samples as aPTT, FIG. 6 lower panels; for PT clotting time result: plasma containing inhibitor, FIG. 6
From the text: as §1
This verifies that aprotinin exclusively suppresses thrombin formation through the contact coagulation pathway but not through the TF pathway.

[3] = test system: thrombin; experiment: TT assay in plasma (exogenous thrombin); type: biochemical, human; conditions: plasma containing inhibitor, FIG. 6
From the text: as §1

[4] = test system: contact coagulation pathway; experiment: Thrombelastography (TEG) citrated-native whole blood clotting time (R time) after recalcification; type: biochemical, human
Method: FIGS. 2A and 2B are a table and chart comparing recalcified clotting times for tubes made from various materials using a Thrombelastograph® (TEG) 5000 Hemostasis Analyzer. […] Briefly, BD Vacutainer® 369714 glass and 363083 plastic citrate tubes were washed and dried to remove the citrate additive. Afterwards, tubes were filled to capacity using a commercial bag of citrated human whole blood. Samples were incubated for 15 minutes at room temperature with gentle rocking to promote blood contact with the surface material of the tube wall. Finally, the whole blood clotting time was measured using combined recalcification and TEG. […] Furthermore, it is important to note that only highly sensitive coagulation assays that are performed in the absence of a strong contact pathway activator will be sensitive to these differences.
The titration was performed by evaluating whole blood clotting time (TEG R time). A minimally effective dose was determined at 1000 kallikrein inhibitor units (1000 KIU) per mL of blood as concentrations below that only provided mean clotting times that were either equivalent or lower to that of siliconized glass.
The titration was performed by evaluating whole blood clotting time (TEG R time).
as §2
As shown in FIG. 4(A) various concentrations of aprotinin were used in tests to determine the impact on whole blood clotting time using TEG. […]

[5] = test system: thrombin generation; experiment: Calibrated Automated Thrombogram (CAT) thrombin generation assay in citrated plasma; type: biochemical, human
From the text: FIGS. 3A and 3B is a table and chart comparing thrombin generation from citrated plasma obtained from tubes made of various materials using the Calibrated Automated Thrombogram (CAT) assay. The CAT assay, rather than measuring coagulation, combines the use of a fluorogenic substrate that is cleaved in the presence of thrombin as well as a calibrator to provide a quantitative measurement of thrombin generation in a recalcified plasma sample. The predominant use of this assay is to examine the thrombin generation profile of a clinical research sample in response to tissue factor (TF). […] The charts contained in FIG. 3B provide example thrombin generation curves that were used to populate the data table in FIG. 3A.
as §2, with “After 15 minutes incubation, the TEG R value is obtained immediately after addition of 10 mM CaCl2.” left out, “regression. […]” for “regression.”

[6] = sterilization stability of the additive in a blood collection tube; type: physicochemical
From the text: FIG. 7 provides a comparison of kallikrein, factor XIIa, and factor IX inhibition for the purposes of mitigating contact pathway contributions to thrombin generation.
An advantage of using aprotinin over CTI or anti-Factor XI antibody is that neither of the latter two inhibitors can be present in a tube that has been sterilized.

Substance | aPTT result [1] | thrombin generation in tests that monitor the TF coagulation pathway exclusively [2] | PT clotting time result [2] | TT clotting time result [3] | whole blood clotting time (TEG R time) ([4]; 2000 KIU/mL aprotinin, blood in uncoated glass, compared with siliconized glass or plastic) | minimally effective dose by whole blood clotting time (TEG R time) ([4]; aprotinin titration in citrated blood, lower concentrations gave clotting times equivalent or lower to siliconized glass) | aprotinin concentration mitigating the contact coagulation pathway in uncoated glass tubes to a level equivalent to siliconized glass or plastic tubes ([4]; citrated blood in uncoated glass tubes, TEG) [KIU/mL] | mitigation of contact pathway contributions to thrombin generation (CAT) ([5]; glass and plastic citrate tubes, FIG. 7) | thrombin generation (CAT), effect of increasing aprotinin ([5]; siliconized glass and plastic tubes, FIG. 4B) | aPTT result ([1]; listed as Aprotinin) | sterilization stability [6]
Corn trypsin inhibitor [CTI] | Equivalent inhibition | unaffected | none of the inhibitors produced prolonged PT or TT assays | none of the inhibitors produced prolonged PT or TT assays | – | – | – | – | – | – | –
aprotinin | equivalent to or greater than the time to generate thrombin in the presence of CTI and anti-Factor XI antibody | unaffected | none of the inhibitors produced prolonged PT or TT assays | none of the inhibitors produced prolonged PT or TT assays | longer clotting times than that of blood stored in either siliconized glass or plastic | 1000 KIU per mL of blood | ≥ 1000 | robustly diminished; also recorded: equivalent to that of CTI and anti-Factor XI antibody | delays and reduces thrombin generation in a dose dependent fashion; also recorded: thrombin generation is decreased and delayed | dose dependent effect | sterilization stable
